Test results as given in paper PMC8179208, “Unravelling the mechanisms controlling heme supply and demand” (Proceedings of the National Academy of Sciences of the …, 2021).

Molecular target: T1, mAPXmEGFP (Glycine max, UniProt Q43758, K14D/E112K)
T1 construct: gene apx1; monomeric K14D/E112K APX fused to mEGFP reporter; N-terminal His tag, pLEICS-45; pea, Pisum sativum, possible
T1 sequence (Q43758 1-250 K14D/E112K): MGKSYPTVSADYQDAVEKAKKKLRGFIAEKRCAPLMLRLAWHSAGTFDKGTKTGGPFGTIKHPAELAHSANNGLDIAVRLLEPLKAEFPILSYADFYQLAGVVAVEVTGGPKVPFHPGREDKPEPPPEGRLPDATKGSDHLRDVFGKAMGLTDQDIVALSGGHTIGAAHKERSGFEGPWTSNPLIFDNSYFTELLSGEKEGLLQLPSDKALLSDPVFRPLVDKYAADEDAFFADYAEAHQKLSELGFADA
Assay: time-correlated single-photon counting fluorescence lifetime titration of apo protein, […] binding model
Conditions: 37 °C, 10 mM potassium phosphate pH 7, 1 uM protein

C=CC1=C(C)C2=Cc3c(C=C)c(C)c4[n]3[Fe]([Cl])[n]3c(c(C)c(CCC(=O)O)c3=CC3=NC(=C4)C(C)=C3CCC(=O)O)=CC1=N2 [heme]
Kd: 22 nM
